Test results from patent US9868692B2, “Compounds and compositions for intracellular delivery of therapeutic agents” (MODERNATX, Inc., priority 2015, dated 2018).

Experiments:
[1] = system: hEPO mRNA expression; experiment: hEPO expression after intravenous administration to mice; assay type: in vivo; settings: i.v., 0.5 mpk, 3, 6 and 24 hours
Description: Sample formulations of nanoparticle compositions including different lipids are generally first evaluated according to Luc expression in vivo. The activity of several such compositions was further evaluated using an mRNA encoding hEPO. Nanoparticle compositions including Compounds 6, 18, 25, 30, 108-112, 60, and 122, or MC3 were prepared according to Example 2.
(§1) The expression of hEPO and cytokine induction in mice intravenously administered a nanoparticle composition at a dose of 0.5 mpk were measured at 3, 6, and 24 hours. […] The expression of hEPO in mice intramuscularly administered a nanoparticle composition from Table 1B at a dose of 0.01 mpk were measured at 3, 6, and 24 hours. […] (see also FIG. 9.)

[2] = Residual lipid level in spleen of rats (UPLC-MS quantification); assay type: in vivo; settings: rat
Description: (§2) To pre-weighed tissues, Milli-Q water was added (900 μL water per 100 mg tissue). Tissues were homogenized using an Omni probe homogenizer until uniform. 50 μL of samples and matrix calibration standards were aliquoted into a 96-well plate. 50 μL of blank matrix for matrix blanks and control blanks were aliquoted. 400 μL IS spiking solution were manually added to all samples except matrix blanks. 400 μL of 50:50 ACN:IPA were manually added to matrix blanks. The plate was covered and the samples vortexed and centrifuged for 5 minutes at >3000 rpm. 200 μL of the samples were transferred into a clean 96-well plate for analysis. […] Detection was based on electrospray ionization (ESI) in positive mode using a Sciex API5500 Mass Spectrometer.
(§3) The expression of hEPO in rats intravenously administered a nanoparticle composition at a dose of 0.2 mpk or 2.0 mpk was measured at 6 hours. […] Liver and spleen levels represent the average values calculated for 3 rats in each group.
(§4) The expression of hEPO and lipid levels in the liver and spleen in rats intravenously administered a nanoparticle composition at a dose of 0.2 mpk was measured at various timepoints. […] Lipids were formulated according to the standard MC3 formulation described above.

[3] = Particle size, polydispersity index (and zeta potential) of nanoparticle compositions, Zetasizer Nano ZS; assay type: physicochemical; settings: Table 1A formulations
How it was run: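 Particle size and polydispersity index were measured by dynamic light scattering on a Zetasizer Nano ZS in 1×PBS. Zeta potential was measured in 15 mM PBS.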

[4] = Encapsulation efficiency of RNA, QUANT-IT RIBOGREEN RNA assay; assay type: physicochemical; settings: Table 1A formulations
How it was run: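 Nanoparticle samples at about 5 μg/mL RNA in TE buffer pH 7.5 were mixed with TE or with a 2% Triton X-100 solution, incubated 15 min at 37 °C, then stained with RiboGreen diluted 1:100. Fluorescence was read at about 480/520 nm and blank-subtracted. Free RNA % was taken as intact over Triton-disrupted fluorescence.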

[5] = Residual lipid level in liver of rats (UPLC-MS quantification); assay type: in vivo; settings: rat; for concentration at 0.25 h / concentration at 0.5 h / concentration at 1 h / concentration at 2 h / concentration at 4 h / concentration at 8 h / concentration at 24 h / concentration at 48 h: liver; for % Lipid Remaining in liver, 48 h 2 mpk: assuming 300 g rat and 15 g liver
Description: as §2, §3, §4

[6] = system: luciferase (Luc) mRNA expression; experiment: Luc expression (total flux) after intramuscular administration; assay type: in vivo, mice; settings: i.m.
Description: The numbers 1-7 in this figure correspond to MC3, Compounds 168-170, and 173-175 respectively.
Sample formulations including both modified luciferase (Luc) mRNA and H10 mRNA were prepared and administered intramuscularly and the resulting expression and immunogenicity were evaluated simultaneously. Formulations including compounds according to Formula (I), (IA), (II), (IIa), (IIb), (IIc), (IId) or (IIe) were prepared and administered at doses of 0.001 and 0.01 mpk (e.g., doses of 0.0005 mpk of a formulation including Luc mRNA and a formulation including H10 mRNA or doses of 0.005 mpk of a formulation including Luc mRNA and a formulation including H10 mRNA).
Sample formulations including modified luciferase (Luc) mRNA prepared and administered intramuscularly and the resulting expression and immunogenicity were evaluated simultaneously. Formulations including compounds according to Formula (I), (IA), (II), (IIa), (IIb), (IIc), (IId) or (IIe) were prepared and administered at dose of […] 0.01 mpk.
The fluxes measured upon intravenous and intramuscular administration are compared in Table 6. Fluxes are presented as fold increase over that measured for MC3 formulations.

[7] = system: IL-6; experiment: Cytokine induction (IL-6) after intravenous administration to mice; assay type: in vivo; settings: i.v., 0.5 mpk, 6 hours (Table 7)
Text: The introduction of foreign material into a mammalian body induces an innate immune response that promotes cytokine production. Such immune responses to, for example, nanoparticle compositions including therapeutic and/or prophylactics, are undesirable. The induction of certain cytokines is thus measured to evaluate the […] of nanoparticle compositions. The concentrations of various cytokines in mice upon intravenous administration of nanoparticle compositions presented in Table 1A at a dosage of 0.5 mpk was measured at 6 hours. The standard MC3 formulation and a PBS control were also tested. As is evident in Table 7, IL-6 induction was highest for compositions including Compounds 1, 3, 9, 19, and 26, while IP-10 induction was highest for compositions including Compounds 3, 4, 7, 20, and 26. IL-6 induction was lowest for compositions including Compounds 4, 11, 12, and 28. IP-10 induction was lowest for compositions including Compounds 10, 11, 12, 13, 15, 17, and 18.
as §1

[8] = Clinical chemistry and hematology after intravenous administration to rat; assay type: in vivo; settings: i.v., 2 mpk, 48 h post dose
Description: Sample formulations of nanoparticle compositions including different lipids were administered intravenously to rat at a dose of 2 mpk. The expression of various clinical markers was evaluated at 48 h post dose and compared to that induced by administration of MC3 formulations or phosphate buffered saline (PBS).
Table 19 summarizes the hEPO expression, IP-10 induction, liver and spleen levels, and alanine aminotransferase (ALT) and aspartate aminotransferase (AST) measured upon intravenous administration of formulations including Compounds 48, 49, and 50 to rat at 0.2 and 2 mpk and hEPO mRNA. hEPO concentrations were measured 6 hours after administration, while cytokine induction and liver and spleen levels were measured 48 hours after administration. hEPO and IP-10 concentrations are presented in pg/ml, while liver levels are provided in ng/g. ALT and AST levels are presented in international units.

[9] = Lipid clearance: % dose remaining in liver after administration of Luc formulations; assay type: in vivo, mice; settings: Table 3D
[10] = 0.2 mg/kg, intravenous, 0.2 mpk

CCCCC/C=C\C/C=C\CCCCCCCCN(CCO)CCCCCCCC(=O)OC(CCCCCCCC)CCCCCCCC [Compound 6, Heptadecan-9-yl 8-((2-hydroxyethyl)((9Z,12Z)-octadeca-9,12-dien-1-yl)amino)octanoate]
hEPO concentrations versus MC3 formulations at each time point [1]: higher hEPO concentrations than MC3 formulations

CCCCCCCCCOC(=O)CCCCCCCN(CCO)CCCCCCCC(=O)OC(CCCCCCCC)CCCCCCCC [Compound 18, Heptadecan-9-yl 8-((2-hydroxyethyl)(8-(nonyloxy)-8-oxooctyl)amino)octanoate]
concentration at 0.25 h [2, 10]: 1230 ng/g
concentration at 0.5 h [2, 10]: 2020 ng/g
concentration at 1 h [2, 10]: 3210 ng/g
concentration at 2 h [2, 10]: 3070 ng/g
concentration at 4 h [2, 10]: 3770 ng/g
concentration at 8 h [2, 10]: 1340 ng/g
concentration at 24 h [2, 10]: 271 ng/g
concentration at 48 h ([2]; 0.2 mg/kg, intravenous, 0.2 mpk, read-out: Lipid level in spleen): 92 ng/g
PDI [3]: 0.042
EE (%) [4]: 97.50%
concentration at 0.25 h [5, 10]: 5370 ng/g
concentration at 0.5 h [5, 10]: 6020 ng/g
concentration at 1 h [5, 10]: 6050 ng/g
concentration at 2 h [5, 10]: 2040 ng/g
concentration at 4 h [5, 10]: 839 ng/g
concentration at 8 h [5, 10]: 296 ng/g
concentration at 24 h [5, 10]: 5 ng/g
concentration at 48 h ([5]; 0.2 mg/kg, intravenous, 0.2 mpk, 48 h, read-out: Lipid level in liver): 5370 ng/g
% Lipid Remaining in liver, 48 h 2 mpk ([5]; 2 mpk, 48 h): 0.018%
hEPO concentrations versus MC3 formulations at each time point [1]: higher hEPO concentrations than MC3 formulations

CCCCCCCCCOC(=O)CCCCCCCN(CCCCO)CCCCCCCC(=O)OC(CCCCCCCC)CCCCCCCC [Compound 20, Heptadecan-9-yl 8-((4-hydroxybutyl)(8-(nonyloxy)-8-oxooctyl)amino) octanoate]
expression at both dose levels ([6]; 0.001 and 0.01 mpk): highest expression
Total flux (p/s) 0.01 mpk Dose ([6]; 6 hours, Luc mRNA and H10 mRNA, 0.01 mpk (Table 5A)): 9.72E+07 p/s

CCCCCCCCCOC(=O)CCCCCCCN(CCO)CCCCCCCCCC(=O)OC(CCCCCCCC)CCCCCCCC [Compound 23, Heptadecan-9-yl 10-((2-hydroxyethyl)(8-(nonyloxy)-8-oxooctyl)amino) decanoate]
IL-6 [7]: 94.00

CCCCCC=CCC=CCCCCCCCCC(CCCCCCCCC=CCC=CCCCCC)OC(=O)CCCN(C)C (stereo not shown) [MC3, heptatriaconta-6,9,28,31-tetraen-19-yl 4-(dimethylamino)butanoate, reference compound]
concentration at 48 h ([2]; intravenous, 0.2 mg/kg, 0.2 mpk, average of 3 rats, read-out: Spleen level): 9440 ng/g
concentration at 48 h ([2]; intravenous, 2 mg/kg, 2 mpk, average of 3 rats, read-out: Spleen level): 129000 ng/g
concentration at 0.25 h ([2]; iv, 0.2 mg/kg, 0.2 mpk): 4100 ng/g
concentration at 0.5 h ([2]; iv, 0.2 mg/kg, 0.2 mpk): 6240 ng/g
concentration at 1 h ([2]; iv, 0.2 mg/kg, 0.2 mpk): 4200 ng/g
concentration at 2 h ([2]; iv, 0.2 mg/kg, 0.2 mpk): 8610 ng/g
concentration at 4 h ([2]; iv, 0.2 mg/kg, 0.2 mpk): 11900 ng/g
concentration at 8 h ([2]; iv, 0.2 mg/kg, 0.2 mpk): 21200 ng/g
concentration at 24 h ([2]; iv, 0.2 mg/kg, 0.2 mpk): 19100 ng/g
concentration at 48 h ([2]; iv, 0.2 mg/kg, 0.2 mpk, read-out: Lipid level in spleen): 11600 ng/g
Concentration Alanine aminotransferase [8]: 339
Concentration Aspartate aminotransferase [8]: 325
Concentration Lymphocytes [8]: 19976
Concentration Monocytes [8]: 1429
Concentration Neutrophils [8]: 4962.5
% Lipid Remaining in liver, 48 h 2 mpk ([5]; 2 mpk, 48 h): 87%
lipid remained in the liver after 48 hours ([5]; 48 hours after administration (text to Tables 17 and 18)): greater than 60%
concentration at 48 h ([5]; intravenous, 0.2 mg/kg, 0.2 mpk, 48 h, average of 3 rats, read-out: Liver level): 25000 ng/g
concentration at 48 h ([5]; intravenous, 2 mg/kg, 2 mpk, 48 h, average of 3 rats, read-out: Liver level): 285000 ng/g
concentration at 0.25 h ([5]; iv, 0.2 mg/kg, 0.2 mpk): 13200 ng/g
concentration at 0.5 h ([5]; iv, 0.2 mg/kg, 0.2 mpk): 20500 ng/g
concentration at 1 h ([5]; iv, 0.2 mg/kg, 0.2 mpk): 16800 ng/g
concentration at 2 h ([5]; iv, 0.2 mg/kg, 0.2 mpk): 26000 ng/g
concentration at 4 h ([5]; iv, 0.2 mg/kg, 0.2 mpk): 24700 ng/g
concentration at 8 h ([5]; iv, 0.2 mg/kg, 0.2 mpk): 32600 ng/g
concentration at 24 h ([5]; iv, 0.2 mg/kg, 0.2 mpk): 33000 ng/g
concentration at 48 h ([5]; iv, 0.2 mg/kg, intravenous, 0.2 mpk, 48 h, read-out: Lipid level in liver): 13200 ng/g
concentration at 48 h ([5]; iv, 0.2 mg/kg, intravenous, 0.2 mpk, 48 hours, read-out: Liver level): 11300 ng/g
concentration at 48 h ([5]; iv, 2 mg/kg, intravenous, 2 mpk, 48 hours, read-out: Liver level): 141000 ng/g
% Dose Remaining in Liver 6h ([9]; first column of this head): 80%
% Dose Remaining in Liver 6h ([9]; second column of this head): 54%
